Source: ChEMBL document CHEMBL1201862, “PubChem BioAssay data set” (2004)
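Assay format: 96-well plates, 48-hour exposure. At the GI50, growth is halved.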 The source made the active and inactive calls. Cut-off read from the data, not from the text of the source: active = GI50 up to about 1.1 µM and inactive = higher.

Experiments:
Test in all cases: NCI-60 cell line screen, 48 h
MOLT-4 = tested on: MOLT-4
U-251 = tested on: U-251
SK-MEL-5 = tested on: SK-MEL-5
NCI-H226 = tested on: NCI-H226
SR = tested on: SR
SK-OV-3 = tested on: SK-OV-3
HOP-62 = tested on: HOP-62
NCI-H23 = tested on: NCI-H23
Malme-3M = tested on: Malme-3M
SF-539 = tested on: SF-539
CAKI-1 = tested on: CAKI-1
T47D = tested on: T47D
UACC-257 = tested on: UACC-257
HCT-15 = tested on: HCT-15
HT-29 = tested on: HT-29
SNB-75 = tested on: SNB-75
SK-MEL-28 = tested on: SK-MEL-28
OVCAR-3 = tested on: OVCAR-3
HCC 2998 = tested on: HCC 2998
786-0 = tested on: 786-0

| SMILES | GI50 (MOLT-4) | GI50 (U-251) | GI50 (SK-MEL-5) | GI50 (NCI-H226) | GI50 (SR) | GI50 (SK-OV-3) | GI50 (HOP-62) | GI50 (NCI-H23) | GI50 (Malme-3M) | GI50 (SF-539) | GI50 (CAKI-1) | GI50 (T47D) | GI50 (UACC-257) | GI50 (HCT-15) | GI50 (HT-29) | GI50 (SNB-75) | GI50 (SK-MEL-28) | GI50 (OVCAR-3) | GI50 (HCC 2998) | GI50 (786-0) |
| --- | --- | --- | --- | --- | --- | --- | --- | --- | --- | --- | --- | --- | --- | --- | --- | --- | --- | --- | --- | --- |
| CCOC(=O)NC(NCC(O)c1ccccc1)(C(F)(F)F)C(F)(F)F (configuration not stated) | > 100 µM (inactive) | > 100 µM (inactive) | > 100 µM (inactive) | > 100 µM (inactive) | > 100 µM (inactive) | > 100 µM (inactive) | > 100 µM (inactive) | > 100 µM (inactive) | > 100 µM (inactive) | > 100 µM (inactive) | > 100 µM (inactive) | > 100 µM (inactive) | > 100 µM (inactive) | > 100 µM | > 100 µM (inactive) | > 100 µM (inactive) | > 100 µM (inactive) | > 100 µM (inactive) | > 100 µM (inactive) |  |
| NC(=O)c1cnc2sc3ccccc3n2c1=O | > 100 µM (inactive) |  | > 100 µM (inactive) | 34.5 µM (inactive) | > 100 µM (inactive) | > 100 µM (inactive) | > 100 µM (inactive) |  | > 100 µM (inactive) | > 100 µM (inactive) | > 100 µM (inactive) | > 100 µM (inactive) | > 100 µM (inactive) | > 100 µM | > 100 µM (inactive) | > 100 µM (inactive) | > 100 µM (inactive) | > 100 µM (inactive) | > 100 µM (inactive) | > 100 µM (inactive) |
| O=C(O)/C=N/NC(=S)NC1CCCCC1 | > 100 µM (inactive) | > 100 µM (inactive) | > 100 µM (inactive) | > 100 µM (inactive) | > 100 µM (inactive) | > 100 µM (inactive) | > 100 µM (inactive) | > 100 µM (inactive) | > 100 µM (inactive) | > 100 µM (inactive) | > 100 µM (inactive) | > 100 µM (inactive) | > 100 µM (inactive) | > 100 µM | > 100 µM (inactive) | > 100 µM (inactive) | > 100 µM (inactive) | > 100 µM (inactive) | > 100 µM (inactive) | > 100 µM (inactive) |
| NC1C/C(=N\O)c2c(I)sc(I)c21 (configuration not stated) | 3.05 µM (inactive) | 18.3 µM (inactive) | 14.8 µM (inactive) | 18.4 µM (inactive) | 4.8 µM (inactive) | 16.4 µM (inactive) | 18.2 µM (inactive) | 14.7 µM (inactive) | 15.7 µM (inactive) | 6.08 µM (inactive) | 15.2 µM (inactive) | 23.2 µM (inactive) | 16 µM (inactive) | 13.4 µM | 19.2 µM (inactive) | 18.9 µM (inactive) | 17.5 µM (inactive) | 15.8 µM (inactive) | 20.1 µM (inactive) | 16 µM (inactive) |
| COc1ccc2c(c1)OCC1=C2Oc2ccccc2C1 | 20.3 µM (inactive) | 33.5 µM (inactive) | 13.9 µM (inactive) | 27 µM (inactive) | 26.9 µM (inactive) | 85.3 µM (inactive) | 55.3 µM (inactive) | 53.2 µM (inactive) | > 100 µM (inactive) | 27.5 µM (inactive) | 49.7 µM (inactive) | 36.1 µM (inactive) | 31.2 µM (inactive) | 31 µM | 26.7 µM (inactive) | 3.12 µM (inactive) |  | 33.6 µM (inactive) | 24 µM (inactive) | 38 µM (inactive) |
| CC1(C)OP(=O)(c2ccccc2)C=C1Br (configuration not stated) |  | > 100 µM (inactive) | > 100 µM (inactive) | > 100 µM (inactive) | > 100 µM (inactive) | > 100 µM (inactive) | > 100 µM (inactive) | > 100 µM (inactive) | > 100 µM (inactive) | > 100 µM (inactive) | > 100 µM (inactive) | > 100 µM (inactive) | > 100 µM (inactive) | > 100 µM | > 100 µM (inactive) | > 100 µM (inactive) | > 100 µM (inactive) | > 100 µM (inactive) | > 100 µM (inactive) | > 100 µM (inactive) |
| C=C(C(=O)OC)N1C(=O)CC(C)C1=O (configuration not stated) | 3.33 µM (inactive) | 17.4 µM (inactive) | 16.9 µM (inactive) | 27 µM (inactive) | 2.59 µM (inactive) | 35.7 µM (inactive) | 17.5 µM (inactive) | 17.9 µM (inactive) | 2.45 µM (inactive) | 19 µM (inactive) | 1.13 µM (inactive) | 11.1 µM (inactive) | 12.3 µM (inactive) | 7.45 µM | 10.7 µM (inactive) | 17 µM (inactive) | 9.55 µM (inactive) | 8.05 µM (inactive) | 16.1 µM (inactive) | 10.7 µM (inactive) |
| CCOC(=O)CC/C(C)=N\n1c(Cc2ccc(Cl)cc2)n[nH]c1=O | > 100 µM (inactive) | > 100 µM (inactive) | > 100 µM (inactive) | > 100 µM (inactive) | > 100 µM (inactive) |  | > 100 µM (inactive) | > 100 µM (inactive) | > 100 µM (inactive) | > 100 µM (inactive) | > 100 µM (inactive) | > 100 µM (inactive) | > 100 µM (inactive) | > 100 µM | > 100 µM (inactive) | > 100 µM (inactive) | > 100 µM (inactive) | > 100 µM (inactive) | > 100 µM (inactive) | > 100 µM (inactive) |
| CC1=C(C(=O)Nc2ccccc2)C(c2ccc(C)o2)C(C#N)=C(SCc2ccccc2)N1 (configuration not stated) | 7.55 µM (inactive) | > 100 µM (inactive) | 34.5 µM (inactive) | > 100 µM (inactive) | 4.75 µM (inactive) | > 100 µM (inactive) | > 100 µM (inactive) | > 100 µM (inactive) | 5.77 µM (inactive) | > 100 µM (inactive) | > 100 µM (inactive) | 13.3 µM (inactive) | > 100 µM (inactive) | 12.7 µM | 34.9 µM (inactive) | > 100 µM (inactive) | > 100 µM (inactive) | 51.9 µM (inactive) | > 100 µM (inactive) | > 100 µM (inactive) |
| C/C(=N\NC(=S)NC(C)(C)C)c1ccccn1 | < 0.01 µM (active) | 0.0252 µM (active) | 0.153 µM (active) | 0.0675 µM (active) | < 0.01 µM (active) | 0.305 µM (active) | < 0.0222 µM (active) | < 0.0172 µM (active) | 2.83 µM (inactive) | 1.88 µM (inactive) | < 0.0333 µM (active) | < 0.01 µM (active) | < 0.01 µM (active) | < 0.01 µM |  | 11.7 µM (inactive) | 3.66 µM (inactive) | < 0.01 µM (active) | 0.235 µM (active) | < 0.0406 µM (active) |
| CCCCCCCCCCCCCCCCCCNc1ccn(C2OC(COP(=O)(O)OCC3OC(n4ccc(NC(=O)CCCCCCCCCCCCCCCCC)nc4=O)C(OC(C)=O)C3OC(C)=O)C(OC(C)=O)C2OC(C)=O)c(=O)n1 (configuration not stated) | > 100 µM (inactive) | > 100 µM (inactive) | > 100 µM (inactive) | > 100 µM (inactive) | > 100 µM (inactive) | > 100 µM (inactive) | > 100 µM (inactive) | > 100 µM (inactive) | > 100 µM (inactive) | > 100 µM (inactive) | > 100 µM (inactive) | > 100 µM (inactive) | > 100 µM (inactive) | > 100 µM | > 100 µM (inactive) | > 100 µM (inactive) | > 100 µM (inactive) | > 100 µM (inactive) | > 100 µM (inactive) | > 100 µM (inactive) |
| C/C=C/C(O)P1(=O)N(Cc2ccccc2)[C@@H]2CCCC[C@H]2N1Cc1ccccc1 (some centres not stated) | 19.9 µM (inactive) | > 25 µM (inactive) | > 25 µM (inactive) | > 25 µM (inactive) | > 25 µM (inactive) | > 25 µM (inactive) | > 25 µM (inactive) | > 25 µM (inactive) | > 25 µM (inactive) | > 25 µM (inactive) | > 25 µM (inactive) | > 25 µM (inactive) | > 25 µM (inactive) | > 25 µM | > 25 µM (inactive) | > 25 µM (inactive) | > 25 µM (inactive) | > 25 µM (inactive) | > 25 µM (inactive) | > 25 µM (inactive) |
| CC(=O)O[C@H]1CCn2c3c(c(C)c21)C(=O)C(N1CC1)=C(C)C3=O | > 10 µM (inactive) | > 10 µM (inactive) | 2.57 µM (inactive) | > 10 µM (inactive) | > 10 µM (inactive) | > 10 µM (inactive) | 5.2 µM (inactive) | 1.68 µM (inactive) | > 10 µM (inactive) | > 10 µM (inactive) | > 10 µM (inactive) | > 10 µM (inactive) | > 10 µM (inactive) | > 10 µM | 2.84 µM (inactive) | 8.51 µM (inactive) |  | > 10 µM (inactive) | > 10 µM (inactive) | > 10 µM (inactive) |
| Clc1cccc(Cl)c1C1ON=C(c2ccccc2)N1C12CC3CC(CC(C3)C1)C2 (configuration not stated) | 7.31 µM (inactive) | 62.5 µM (inactive) | 4.57 µM (inactive) | 43.3 µM (inactive) | 5.35 µM (inactive) | 98.2 µM (inactive) | 31.6 µM (inactive) | 31 µM (inactive) | 14.8 µM (inactive) | 66.1 µM (inactive) | 40.9 µM (inactive) | 11.4 µM (inactive) | 3.29 µM (inactive) | 9.75 µM | 29.1 µM (inactive) | 0.387 µM (active) | 45 µM (inactive) | 9.38 µM (inactive) | 13.8 µM (inactive) | 32.4 µM (inactive) |
| C(=C\c1ccccc1)/COc1ccccc1C(N1CCOCC1)n1nc2ccccc2n1 (configuration not stated) | 2.3 µM (inactive) | 3.08 µM (inactive) | 3.33 µM (inactive) | 7.28 µM (inactive) | 1.07 µM (active) | 32.4 µM (inactive) | 4.71 µM (inactive) | 5.35 µM (inactive) | 2.99 µM (inactive) | 2.59 µM (inactive) | 15.2 µM (inactive) | 10.7 µM (inactive) | 5.51 µM (inactive) | 1.82 µM | 3 µM (inactive) | 4.8 µM (inactive) | 10.7 µM (inactive) | 2.18 µM (inactive) | 17.5 µM (inactive) | 3.29 µM (inactive) |
